From publication PMC13070491, “Single-nucleus transcriptomics, pharmacokinetics, and pharmacodynamics of CDK4/6 and mTOR inhibition in a Phase 0/1 trial of recurrent high-grade glioma” (Neuro-Oncology, 2025)

Tested on: GB126, GB239 and GB86 patient-derived cell lines
Assay: In vitro single-cell RNA sequencing, analyses across the cell lines (pseudobulk differential gene expression, GSEA, non-cycling cells)
Type: cell-based, human
Conditions: pseudobulk, ribociclib versus control (DMSO)
Description: Patient-derived glioma stem cell lines (GSCs; GB126, GB86, and GB239) were established from resected GBM tumor tissue. Cell lines were genetically profiled for mutations and copy number aberrations using the IvySeq custom gene panel. […] GB239 was derived from a tumor sample included in this Phase 0 trial (tumor sample: 100-0039). All human GSCs were cultured as described previously.[12]
Following the fifth day of drug exposure, cells were harvested, cryopreserved to be processed at a later point, or immediately processed for single-cell RNA sequencing (10x Genomics, 3’ version 3). The single-cell RNA sequencing data were then processed via cellranger count and Seurat. Briefly, cells were filtered out based on the following criteria: minimum number of genes detected >500 and <10 000 with a maximum percentage of mitochondrial genes set to 10%. Statistical assessment was made between the malignant proportions of each cell state using a 2-sided paired t-test.
Descriptive statistics of the clinical data are included in Table 1. Comparisons between groups were conducted using a 2-sided or paired 2-sided t-test, where indicated. P < .05 was considered significant. Multiple hypothesis test corrections (ie, false discovery rate correction) were applied for snRNAseq pseudobulk differential expression analysis.

Compound: CN(C)C(=O)c1cc2cnc(Nc3ccc(N4CCNCC4)cn3)nc2n1C1CCCC1 [ribo]
- log2FoldChange ABCA6 (gene ABCA6): 1.5
- log2FoldChange ABCA8 (gene ABCA8): 1.548
- log2FoldChange AC002074.1 (gene AC002074.1): 1.866
- log2FoldChange AC002383.1 (gene AC002383.1): 1.53
- log2FoldChange AC004828.1 (gene AC004828.1): 1.459
- log2FoldChange AC005538.3 (gene AC005538.3): 2.148
- log2FoldChange AC007317.2 (gene AC007317.2): 2.061
- log2FoldChange AC009313.1 (gene AC009313.1): 1.78
- log2FoldChange AC009975.2 (gene AC009975.2): 1.436
- log2FoldChange AC010230.1 (gene AC010230.1): 1.7556
- log2FoldChange AC010551.3 (gene AC010551.3): 1.556
- log2FoldChange AC012038.2 (gene AC012038.2): 2.048
- log2FoldChange AC012405.1 (gene AC012405.1): 1.439
- log2FoldChange (gene AC012533.1): -1.092
- log2FoldChange AC012625.1 (gene AC012625.1): 1.675
- log2FoldChange AC013480.1 (gene AC013480.1): 1.662
- log2FoldChange AC020892.1 (gene AC020892.1): 1.613
- log2FoldChange AC023644.1 (gene AC023644.1): 1.813
- log2FoldChange (gene AC024884.2): -1.745
- log2FoldChange AC025263.1 (gene AC025263.1): 1.435
- log2FoldChange (gene AC026333.4): -1.805
- log2FoldChange AC026888.1 (gene AC026888.1): 1.994
- log2FoldChange AC027117.1 (gene AC027117.1): 1.702
- log2FoldChange AC055874.1 (gene AC055874.1): 1.6992
- log2FoldChange AC073611.1 (gene AC073611.1): 1.444
- log2FoldChange AC079117.1 (gene AC079117.1): 1.6417
- log2FoldChange AC090403.1 (gene AC090403.1): 1.628
- log2FoldChange AC091953.1 (gene AC091953.1): 1.742
- log2FoldChange AC092604.1 (gene AC092604.1): 1.65
- log2FoldChange AC092617.1 (gene AC092617.1): 2.048
- log2FoldChange AC092691.3 (gene AC092691.3): 1.975
- log2FoldChange AC096576.2 (gene AC096576.2): 1.586
- log2FoldChange AC096576.3 (gene AC096576.3): 1.66
- log2FoldChange AC097375.4 (gene AC097375.4): 1.562
- log2FoldChange (gene AC099850.3): -1.64
- log2FoldChange AC100835.2 (gene AC100835.2): 1.894
- log2FoldChange AC104078.2 (gene AC104078.2): 1.507
- log2FoldChange AC104574.1 (gene AC104574.1): 1.483
- log2FoldChange AC106874.1 (gene AC106874.1): 1.556
- log2FoldChange AC109129.1 (gene AC109129.1): 1.6709
- log2FoldChange AC110296.1 (gene AC110296.1): 1.762
- log2FoldChange AC114546.2 (gene AC114546.2): 1.559
- log2FoldChange AC114964.2 (gene AC114964.2): 1.675
- log2FoldChange (gene AC116914.1): -1.614
- log2FoldChange AC121154.1 (gene AC121154.1): 1.879
- log2FoldChange AC132153.1 (gene AC132153.1): 1.518
- log2FoldChange AC133530.1 (gene AC133530.1): 1.513
- log2FoldChange AC137579.1 (gene AC137579.1): 1.549
- log2FoldChange (gene AC138819.1): -1.883
- log2FoldChange ACSM5 (gene ACSM5): 2.672
- log2FoldChange (gene ACYP1): -1.092
- log2FoldChange ADAMTS4 (gene ADAMTS4): 1.636
- log2FoldChange ADCY5 (gene ADCY5): 1.503
- log2FoldChange ADGRA1-AS1 (gene ADGRA1-AS1): 1.641
- log2FoldChange ADH1A (gene ADH1A): 1.456
- log2FoldChange AL022324.3 (gene AL022324.3): 1.692
- log2FoldChange (gene AL031658.2): -1.667
- log2FoldChange AL132633.1 (gene AL132633.1): 1.623
- log2FoldChange (gene AL132655.3): -1.059
- log2FoldChange AL135934.1 (gene AL135934.1): 1.5674
- log2FoldChange (gene AL138789.1): -1.6906
- log2FoldChange AL158058.1 (gene AL158058.1): 2.1266
- log2FoldChange AL162385.1 (gene AL162385.1): 2.332
- log2FoldChange AL354813.1 (gene AL354813.1): 1.4344
- log2FoldChange AL355916.2 (gene AL355916.2): 1.536
- log2FoldChange (gene AL356094.2): -1.675
- log2FoldChange AL358394.1 (gene AL358394.1): 2.818
- log2FoldChange (gene AL390839.2): -1.735
- log2FoldChange AL391730.2 (gene AL391730.2): 1.804
- log2FoldChange AL445423.1 (gene AL445423.1): 1.473
- log2FoldChange AL591686.1 (gene AL591686.1): 1.912
- log2FoldChange (gene AL645608.7): -1.064
- log2FoldChange (gene ANP32E): -1.059
- log2FoldChange AP000569.1 (gene AP000569.1): 1.498
- log2FoldChange AP000857.2 (gene AP000857.2): 1.634
- log2FoldChange AP001825.1 (gene AP001825.1): 1.5203
- log2FoldChange AP002370.2 (gene AP002370.2): 1.537
- log2FoldChange AP002761.2 (gene AP002761.2): 1.672
- log2FoldChange (gene ARHGAP11A): -1.6744
- log2FoldChange ARHGAP26-IT1 (gene ARHGAP26-IT1): 2.344
- log2FoldChange (gene ARNTL2): -1.092
- log2FoldChange ASB9 (gene ASB9): 1.438
- log2FoldChange BAIAP3 (gene BAIAP3): 1.561
- log2FoldChange BBOX1 (gene BBOX1): 1.457
- log2FoldChange (gene BRIP1): -1.784
- log2FoldChange BST2 (gene BST2): 1.645
- log2FoldChange (gene BUB1): -1.8
- log2FoldChange (gene C1QTNF2): -1.812
- log2FoldChange C1orf147 (gene C1orf147): 1.503
- log2FoldChange C16orf89 (gene C16orf89): 1.4386
- log2FoldChange C20orf78 (gene C20orf78): 1.576
- log2FoldChange (gene C21orf58): -1.614
- log2FoldChange CALB2 (gene CALB2): 2.123
- log2FoldChange (gene CAMK2N2): -1.147
- log2FoldChange (gene CCDC74A): -1.6
- log2FoldChange (gene CCDC74B): -1.688
- log2FoldChange (gene CCNE2): -1.873
- log2FoldChange (gene CCNF): -1.863
- log2FoldChange (gene CDCA4): -1.7252
- log2FoldChange (gene CDKN3): -1.855
- log2FoldChange (gene CHAF1B): -1.654
- log2FoldChange CHGA (gene CHGA): 1.609
- log2FoldChange CHI3L1 (gene CHI3L1): 1.918
- log2FoldChange CHL1-AS1 (gene CHL1-AS1): 1.667
- log2FoldChange CHST4 (gene CHST4): 1.465
- log2FoldChange CLEC1A (gene CLEC1A): 1.693
- log2FoldChange (gene CRHR1): -1.091
- log2FoldChange CYP4Z1 (gene CYP4Z1): 1.554
